Publication PMC7822874, “Chemoprotective antimalarials identified through quantitative high-throughput screening of Plasmodium blood and liver stage parasites” (Scientific Reports, 2021)
Like-named read-outs stand apart in the source and are kept apart here.

Legend:
in vitro = details: human, HepG2-A16-CD81EGFP cells, uninfected
[1] = tested on: P. berghei-ANKA-GFP-LucCON liver stage parasites in HepG2-A16-CD81EGFP cells; assay: P. berghei liver stage Pb-Luc assay, Method 1 (UCSD, 1536-well); format: cell-based, Plasmodium berghei; details: Plasmodium berghei, 48 h
HepG2-A16-CD81EGFP cells = details: for HepG2 1uM growth rep1 / HepG2 1uM growth rep2: HepG2, 1 µM compound treatment (10 mM stocks); for HepG2 1uM growth rep1 / HepG2 3uM growth rep1: replicate 1, normalized; for HepG2 1uM growth rep2 / HepG2 3uM growth rep2: replicate 2, normalized; for HepG2 3uM growth rep1 / HepG2 3uM growth rep2: HepG2, 3 µM compound treatment (10 mM stocks)
[2] = tested on: Plasmodium falciparum Dd2 asexual blood stage parasites; assay: microbe, parasite or virus in culture; parameters: species or system Plasmodium falciparum Dd2 in human erythrocytes; single determination (one 11-point concentration-response curve); details: Plasmodium falciparum, DD2, Erythrocyte, 72 h; read-out: AC50
[3] = nominal 1 uM (10 mM stock), […] for 15 mM, 1.2 uM for 12 mM, 2 uM for 20 mM stock, average of 2 wells, 1536-well plate, repeat 1, read-out: Pb-Luc signal, 1 uM, repeat 1
[4] = nominal 1 uM (10 mM stock), […] for 15 mM, 1.2 uM for 12 mM, 2 uM for 20 mM stock, average of 2 wells, 1536-well plate, repeat 2, read-out: Pb-Luc signal, 1 uM, repeat 2
[5] = nominal 1 uM (10 mM stock), […] for 15 mM, 1.2 uM for 12 mM, 2 uM for 20 mM stock, average of 2 wells, 1536-well plate, repeat 3, read-out: Pb-Luc signal, 1 uM, repeat 3
[6] = nominal 3 uM (10 mM stock), 4.5 uM for 15 mM, 3.6 uM for 12 mM, 6 uM for 20 mM stock, average of 2 wells, 1536-well plate, repeat 1, read-out: Pb-Luc signal, 3 uM, repeat 1
[7] = nominal 3 uM (10 mM stock), 4.5 uM for 15 mM, 3.6 uM for 12 mM, 6 uM for 20 mM stock, average of 2 wells, 1536-well plate, repeat 2, read-out: Pb-Luc signal, 3 uM, repeat 2
[8] = nominal 3 uM (10 mM stock), 4.5 uM for 15 mM, 3.6 uM for 12 mM, 6 uM for 20 mM stock, average of 2 wells, 1536-well plate, repeat 3, read-out: Pb-Luc signal, 3 uM, repeat 3
[9] = nominal 1 uM (10 mM stock), […] for 15 mM, 1.2 uM for 12 mM, 2 uM for 20 mM stock, average of 2 wells, repeat 2
[10] = nominal 3 uM (10 mM stock), 4.5 uM for 15 mM, 3.6 uM for 12 mM, 6 uM for 20 mM stock, average of 2 wells, repeat 2
[11] = P. berghei liver stage, 1 µM compound treatment (10 mM stocks), replicate 1, normalized, average of 2 wells on a 1536 well plate, read-out: PbLuc 1uM growth rep1
[12] = P. berghei liver stage, 1 µM compound treatment (10 mM stocks), replicate 2, normalized, average of 2 wells on a 1536 well plate, read-out: PbLuc 1uM growth rep2
[13] = P. berghei liver stage, 3 µM compound treatment (10 mM stocks), replicate 1, normalized, average of 2 wells on a 1536 well plate, read-out: PbLuc 3uM growth rep1
[14] = P. berghei liver stage, 3 µM compound treatment (10 mM stocks), replicate 2, normalized, average of 2 wells on a 1536 well plate, read-out: PbLuc 3uM growth rep2

SMILES	viability at 48 h, 1 µM (in vitro) [%]	viability at 48 h, 3 µM (in vitro) [%]	activity at 1 µM [1, 3] [%]	activity at 1 µM [1, 4] [%]	activity at 1 µM [1, 5] [%]	activity at 3 µM [1, 6] [%]	activity at 3 µM [1, 7] [%]	activity at 3 µM [1, 8] [%]	HepG2 viability signal, 1 uM, repeat 2 (HepG2-A16-CD81EGFP cells; [9]) [%]	HepG2 viability signal, 3 uM, repeat 2 (HepG2-A16-CD81EGFP cells; [10]) [%]	AC50 [2] [nM]	activity at 1 µM [1, 11] [%]	activity at 1 µM [1, 12] [%]	activity at 3 µM [1, 13] [%]	activity at 3 µM [1, 14] [%]	HepG2 1uM growth rep1 (HepG2-A16-CD81EGFP cells; average of 2 wells) [%]	HepG2 1uM growth rep2 (HepG2-A16-CD81EGFP cells; average of 2 wells) [%]	HepG2 3uM growth rep1 (HepG2-A16-CD81EGFP cells; average of 2 wells) [%]	HepG2 3uM growth rep2 (HepG2-A16-CD81EGFP cells; average of 2 wells) [%]	further results
COc1ccc(Cl)cc1[S+](=O)([O-])N1CCC2(CCCNC2)C1 (centres unmarked) [NCGC00431241-01]	112	108	96.7	98.8	61.1	98.4	74.5	79.2	104.68	95.82	–	–	–	–	–	–	–	–	–	–
O=C1NCc2ccccc2CC12CCCN(Cc1ccccc1)C2 (centres unmarked) [NCGC00377595-01]	104	104	90.7	117	140	93.9	108	117	103.34	104.13	–	–	–	–	–	–	–	–	–	–
O=C(O)c1ccc(-c2nc3cnccc3[nH]2)cc1 [NCGC00375713-01]	105	104	93.2	89.1	137	91.8	93.1	98.5	104.68	103.76	–	–	–	–	–	–	–	–	–	–
CN1c2cc(C(=O)Nc3ccc(C(F)(F)F)cc3)ccc2C(=O)N2CCCCC21 (centres unmarked) [NCGC00452394-01]	104	110	89.2	103	126	97.6	85.9	102	105.25	108.50	–	–	–	–	–	–	–	–	–	–
Cc1ccc([S+](=O)([O-])N2CCC(OC3CCN(Cc4ccccc4)CC3)CC2)c(C)c1 [NCGC00444944-01]	111	107	76.1	74	76.6	78.2	61.2	56.1	105.13	100.76	–	–	–	–	–	–	–	–	–	–
C[C@H]1[C@@H]2[C@H]3OC(=O)[C@@H](C)[C@@H]3CC[C@@]2(C)CC[C@@H]1NC(=O)CC(C)(C)C [NCGC00392703-01]	95.8	99	105	129	103	126	109	99.6	102.40	102.42	–	–	–	–	–	–	–	–	–	–
COc1ccc(-c2noc(-c3cccn3CC(=O)Nc3cccc(Cl)c3C)n2)cc1F [NCGC00445510-01]	104	105	103	114	132	102	91.7	124	99.09	100.27	–	–	–	–	–	–	–	–	–	–
COc1ccc(OC)c(NC(=O)c2ccc3c(c2)N([S+](=O)([O-])c2ccccc2)CC3)c1 [NCGC00430430-01]	112	109	111	108	91.3	102	79.3	99.8	–	–	–	–	–	–	–	–	–	–	–	HepG2 viability signal, 1 uM, repeat 2 (HepG2-A16-CD81EGFP cells): 105.03%; HepG2 viability signal, 3 uM, repeat 2 (HepG2-A16-CD81EGFP cells): 97.67%
COc1ccc(-c2noc(-c3cccn3CC(=O)Nc3ccc(C)cc3Cl)n2)cc1F [NCGC00445494-01]	99.5	104	118	111	98.1	77.8	91.7	106	100.81	103.68	–	–	–	–	–	–	–	–	–	–
CCN(c1ccccc1)[S+](=O)([O-])c1ccc(NC(=O)c2cc(=O)c3cc(C)ccc3o2)cc1 [NCGC00115963-01]	–	–	–	–	–	–	–	–	–	–	–	–	–	–	–	–	–	–	–	viability at 48 h (in vitro): 97.5%; HepG2 viability, fourth HepG2 column (HepG2-A16-CD81EGFP cells): 95.01%; HepG2 viability, second HepG2 column (HepG2-A16-CD81EGFP cells): 97.84%; HepG2 viability, third HepG2 column (HepG2-A16-CD81EGFP cells): 94.20%
COc1cccc(CN2CCC(Oc3ccc(-c4noc(C5CC5)n4)cc3)C2)c1 (centres unmarked) [NCGC00440915-01]	102	96.6	92.7	110	96	64.2	65.8	35.3	97.97	94.86	–	–	–	–	–	–	–	–	–	–
O=C(Nc1ccc(S(=O)(=O)N2CCOCC2)cc1)c1cc(-c2cc(Cl)ccc2O)n[nH]1 [MLS000778989-01]	–	–	–	–	–	–	–	–	–	–	2660	131	90	37	31	107	100	70	76	–
COc1ccc(NC(=O)C(c2ccc(Cl)cc2)C(C)C)cn1 (centres unmarked) [MLS001149289-01]	–	–	–	–	–	–	–	–	–	–	1880	131	130	155	159	104	98	90	87	–
COc1ccc(Nc2cc(C)nc(NCc3ccccc3)n2)cc1 [MLS000768693-01]	–	–	–	–	–	–	–	–	–	–	13300	94	74	21	35	90	91	82	84	–
COc1cccc(C2C3=C(N=c4sc(=Cc5ccccc5O)c(=O)n42)c2ccccc2CC3)c1OC (centres unmarked) [MLS000580951-01]	–	–	–	–	–	–	–	–	–	–	2990	115	99	96	91	91	93	90	96	–
Oc1c(Cl)cc(Cl)cc1CN1CCN(Cc2ccccc2)CC1 [MLS000106505-01]	–	–	–	–	–	–	–	–	–	–	668	108	103	88	103	105	94	90	94	–
COc1ccc(OC)c(-n2c(S)nnc2-c2cccc(O)c2)c1 [MLS000089016-01]	–	–	–	–	–	–	–	–	–	–	4220	141	98	86	109	97	93	90	96	–
O=C(Nc1ccc(C2=NCCN2)cc1)c1ccc(C(=O)Nc2ccc(C3=NCCN3)cc2)c(Cl)c1 [MLS000737368-01]	–	–	–	–	–	–	–	–	–	–	473	107	94	72	81	102	94	85	95	–
